We go through two compounds from patent US11197477B2, “Aqueous capsule suspension concentrates based on 2-[(2,4-dichlorophenyl)methyl]-4,4′-dimethyl-3-isoxazolidinone” (priority 2016, dated 2021).

For data set [1] the following is noted: cited from earlier work.
Data set [2] is described as follows: Solubility of the active ingredient in Solvesso 200 ND. The format is physicochemical. The settings on record: at room temperature; at higher concentrations the active ingredient crystallizes out in the capsule. The source says: At higher concentrations, the active ingredient crystallizes out in the capsule.

Consider `CC1(C)CON(Cc2ccc(Cl)cc2Cl)C1=O` [DCPMI, 2-[(2,4-dichlorophenyl)methyl]-4,4′-dimethyl-3-isoxazolidinone], for which the water solubility in data set [1] was 39.5 ppm. Further, the “solubility of the active ingredient in Solvesso 200 ND” value in data set [2] stood at 35 % by weight.
On to `CC1(C)CON(Cc2ccccc2Cl)C1=O` [clomazone, 2-(2-chlorobenzyl)-4,4-dimethyl-1,2-oxazolidin-3-one], for which the water solubility in data set [1] is on record as 1000 ppm.
